Activity calls are given as the source filed them.
Columns and labels:
[1] = biological target: Peroxisome proliferator-activated receptor gamma/Nuclear receptor coactivator 1 (Homo sapiens, UniProt P37231); assay: (§1) TR-FRET dose response biochemical High Throughput Screening assay for agonists of the steroid receptor coactivator 1 (SRC-1) recruitment by the peroxisome proliferator-activated receptor gamma (PPAR gamma): non-selective agonists. [Related pubchem assays (depositor defined):AID1300, AID1808, AID504735, AID631]; format: protein assay
[2] = biological target: Peroxisome proliferator-activated receptor gamma/Nuclear receptor coactivator 3 (Homo sapiens, UniProt P37231); assay: as §1, with “3 (SRC-3)” for “1 (SRC-1)”, “assays: 1301 (Confirmation screen.), 1048 (Primary screen.)]” for “assays (depositor defined):AID1300, AID1808, AID504735, AID631]”; format: functional
[3] = biological target: Peroxisome proliferator-activated receptor gamma/Nuclear receptor coactivator 2 (Homo sapiens, UniProt P37231); assay: TR-FRET dose response biochemical High Throughput Screening assay for agonists of the steroid receptor coactivator 2 (SRC-2) recruitment by the peroxisome proliferator-activated receptor gamma (PPAR gamma): non-selective agonists. [Related pubchem assays: 1297, 1032 ]; format: functional
[4] = biological target: DNA damage-inducible transcript 3 protein (Mus musculus, UniProt P35639); format: functional, Cricetulus griseus
Protein skinhead-1 = biological target: T1, Protein skinhead-1 (Caenorhabditis elegans, UniProt P34707); format: functional
T1 sequence (P34707 whole entry): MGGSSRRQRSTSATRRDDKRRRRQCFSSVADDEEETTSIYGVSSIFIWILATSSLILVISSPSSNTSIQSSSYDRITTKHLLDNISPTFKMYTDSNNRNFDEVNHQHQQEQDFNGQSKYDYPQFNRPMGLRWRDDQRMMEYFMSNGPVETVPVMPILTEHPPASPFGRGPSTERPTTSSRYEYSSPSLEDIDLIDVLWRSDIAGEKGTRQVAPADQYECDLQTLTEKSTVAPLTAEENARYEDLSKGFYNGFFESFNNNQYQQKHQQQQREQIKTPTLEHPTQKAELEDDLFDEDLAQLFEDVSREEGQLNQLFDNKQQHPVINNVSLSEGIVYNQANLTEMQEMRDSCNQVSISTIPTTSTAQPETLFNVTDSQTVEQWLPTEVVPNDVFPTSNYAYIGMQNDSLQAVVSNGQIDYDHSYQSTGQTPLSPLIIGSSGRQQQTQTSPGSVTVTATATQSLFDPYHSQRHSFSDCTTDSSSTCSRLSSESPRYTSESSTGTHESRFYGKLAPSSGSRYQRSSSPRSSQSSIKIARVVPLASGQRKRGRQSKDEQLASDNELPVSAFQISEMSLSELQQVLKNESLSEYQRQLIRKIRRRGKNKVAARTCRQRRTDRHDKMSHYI

[5] = biological target: Dual specificity tyrosine-phosphorylation-regulated kinase 1A (Rattus norvegicus, UniProt Q63470); format: biochemical, Homo sapiens
[6] = biological target: T2, DNA repair and recombination protein RAD54-like (Homo sapiens, UniProt Q92698); assay: RAD54 Holliday junction migration blockers – biochemical, fluorescence, cherry-picked samples, dose series, confirmation (AID 651657); format: functional
T2 sequence (Q92698 whole entry): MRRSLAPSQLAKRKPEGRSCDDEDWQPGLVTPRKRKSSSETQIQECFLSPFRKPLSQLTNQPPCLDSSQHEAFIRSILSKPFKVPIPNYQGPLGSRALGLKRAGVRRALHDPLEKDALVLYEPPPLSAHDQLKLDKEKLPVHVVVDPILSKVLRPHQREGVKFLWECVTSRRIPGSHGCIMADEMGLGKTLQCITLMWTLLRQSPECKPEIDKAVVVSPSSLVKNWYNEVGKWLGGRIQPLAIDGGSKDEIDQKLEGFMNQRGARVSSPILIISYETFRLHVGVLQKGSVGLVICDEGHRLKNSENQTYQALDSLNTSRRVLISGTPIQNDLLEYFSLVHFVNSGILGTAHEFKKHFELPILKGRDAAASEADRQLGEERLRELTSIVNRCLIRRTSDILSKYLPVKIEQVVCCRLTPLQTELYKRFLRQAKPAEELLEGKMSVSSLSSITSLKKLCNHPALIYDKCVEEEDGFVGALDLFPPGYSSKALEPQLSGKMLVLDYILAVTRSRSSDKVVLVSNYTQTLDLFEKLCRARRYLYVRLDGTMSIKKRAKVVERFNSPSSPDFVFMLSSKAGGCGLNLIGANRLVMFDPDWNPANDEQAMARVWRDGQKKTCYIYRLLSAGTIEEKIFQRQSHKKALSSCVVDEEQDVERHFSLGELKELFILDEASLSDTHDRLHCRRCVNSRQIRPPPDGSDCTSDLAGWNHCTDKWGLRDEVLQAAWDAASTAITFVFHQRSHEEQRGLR

[7] = biological target: Endoplasmic reticulum aminopeptidase 1 (Homo sapiens, UniProt Q9NZ08); assay: inhibition of human ERAP1 enzyme activity – biochemical, cherry-pick, set 2, plate reader, dose response (AID 743314)
[8] = NIH-3T3 fibroblast cytotoxicity, dose response, cytotoxicity control, cell-based, fluorescence, Alamar Blue, secondary assay (AID 2327); format: functional;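 also: NIH-3T3 mouse fibroblasts cultured with fluconazole at 8 µg/mL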
[9] = fluconazole-exposed Candida albicans growth modulators – fluorescence, retest, confirmation (AID 2467); format: functional, cell-based
[10] = biological target: T3, Serine/threonine-protein phosphatase (Candida dubliniensis (strain CD36 / CBS 7987 / NCPF 3949 / NRRLY-17841) (Yeast), UniProt B9W6M3); assay: blockers of CaCl2-induced CDRE-lacZ signaling – S. cerevisiae, luminescence, secondary, dose response (AID 2388); format: functional, cell-based;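 also: yeast reporter cells carrying a calcineurin-responsive lacZ construct stimulated with calcium chloride; luminescent beta-galactosidase reporter signal in whole cells rather than isolated phosphatase activity; potency for inhibition where a drop in reporter signal means calcineurin blockade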
T3 sequence (B9W6M3 whole entry): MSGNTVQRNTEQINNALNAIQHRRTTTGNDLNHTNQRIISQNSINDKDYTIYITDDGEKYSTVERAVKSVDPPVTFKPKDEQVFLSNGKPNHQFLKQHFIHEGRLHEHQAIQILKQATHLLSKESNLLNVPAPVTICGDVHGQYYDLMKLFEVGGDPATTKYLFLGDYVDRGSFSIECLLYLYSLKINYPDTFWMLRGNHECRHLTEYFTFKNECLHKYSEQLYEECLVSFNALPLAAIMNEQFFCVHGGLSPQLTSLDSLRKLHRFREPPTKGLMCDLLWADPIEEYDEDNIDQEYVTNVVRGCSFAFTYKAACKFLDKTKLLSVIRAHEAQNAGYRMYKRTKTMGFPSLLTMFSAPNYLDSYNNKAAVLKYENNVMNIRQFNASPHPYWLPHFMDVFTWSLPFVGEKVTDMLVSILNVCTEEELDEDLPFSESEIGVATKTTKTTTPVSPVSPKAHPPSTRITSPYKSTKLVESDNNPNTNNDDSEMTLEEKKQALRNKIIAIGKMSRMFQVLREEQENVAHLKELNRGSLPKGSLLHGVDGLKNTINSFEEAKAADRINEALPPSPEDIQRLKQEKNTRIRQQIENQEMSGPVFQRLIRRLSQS

[11] = biological target: ATP-dependent molecular chaperone HSP82 (Candida albicans (strain WO-1) (Yeast), UniProt C4YTQ8); assay: steroid-induced GRE reporter decrease in yeast – S. cerevisiae, luminescence, Hsp90 inhibitor project, dose response (AID 2400); format: functional, cell-based;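 also: beta-galactosidase luminescence from glucocorticoid response element reporter as proxy for Hsp90 function; inhibitor potency where signal loss means Hsp90 inhibition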
BJ [12] = assay: BJ-TERT fibroblast viability loss – cell-based, RAS-independent, luminescence, dose response (AID 1933); format: functional; settings: Homo sapiens
cells [13] = format: functional, cell-based
BJ [14] = assay: cells; format: functional, cell-based; settings: Homo sapiens
cells [15] = format: functional, cell-based; remark: listed apart in the source
BJ [16] = assay: BJ-TERT-LT-ST fibroblast viability loss – cell-based, RAS-independent, luminescence, dose response (AID 1935); format: functional; settings: Homo sapiens;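 also: BJ fibroblasts immortalized with TERT plus LT and ST oncogenes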
[17] = DRD fibroblast viability loss – cell-based, non-viral oncogenic, luminescence, dose response (AID 1934); format: functional; settings: Homo sapiens
[18] = biological target: T4, Microphthalmia-associated transcription factor (Homo sapiens, UniProt O75030); assay: reducers of TRPM1 reporter luminescence, concentration series – cell-based, SK-MEL-5, cherry-picked, set 3, MITF inhibitor project, dose response (AID 493073); format: functional;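 also: SK-MEL-5 melanoma cells with luciferase driven by the MITF target TRPM1 promoter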
T4 sequence (O75030 whole entry): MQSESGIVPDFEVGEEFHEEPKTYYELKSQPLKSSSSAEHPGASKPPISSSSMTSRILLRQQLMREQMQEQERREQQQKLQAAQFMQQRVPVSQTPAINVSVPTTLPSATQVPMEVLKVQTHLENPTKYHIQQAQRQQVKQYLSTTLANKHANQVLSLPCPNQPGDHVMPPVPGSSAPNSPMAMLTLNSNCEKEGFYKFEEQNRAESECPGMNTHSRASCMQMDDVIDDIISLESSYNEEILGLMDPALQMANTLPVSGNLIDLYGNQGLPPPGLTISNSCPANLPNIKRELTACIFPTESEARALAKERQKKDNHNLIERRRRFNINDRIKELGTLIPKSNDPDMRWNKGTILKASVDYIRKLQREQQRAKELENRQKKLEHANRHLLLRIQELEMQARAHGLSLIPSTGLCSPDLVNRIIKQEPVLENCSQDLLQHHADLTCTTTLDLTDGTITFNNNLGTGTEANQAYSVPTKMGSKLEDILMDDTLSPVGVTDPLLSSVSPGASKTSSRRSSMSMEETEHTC

INS1 = assay: INS-1E survival protection against cytokine death – cell-based, luminescence, retest, dose response (AID 449756); format: functional; settings: Rattus norvegicus;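 also: cell death triggered by IL-1 beta plus TNF-alpha plus IFN-gamma mixture; protective hits raise ATP signal compared with cytokine alone wells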

Chain of Peroxisome proliferator-activated receptor gamma/Nuclear receptor coactivator 1 (P37231 whole entry): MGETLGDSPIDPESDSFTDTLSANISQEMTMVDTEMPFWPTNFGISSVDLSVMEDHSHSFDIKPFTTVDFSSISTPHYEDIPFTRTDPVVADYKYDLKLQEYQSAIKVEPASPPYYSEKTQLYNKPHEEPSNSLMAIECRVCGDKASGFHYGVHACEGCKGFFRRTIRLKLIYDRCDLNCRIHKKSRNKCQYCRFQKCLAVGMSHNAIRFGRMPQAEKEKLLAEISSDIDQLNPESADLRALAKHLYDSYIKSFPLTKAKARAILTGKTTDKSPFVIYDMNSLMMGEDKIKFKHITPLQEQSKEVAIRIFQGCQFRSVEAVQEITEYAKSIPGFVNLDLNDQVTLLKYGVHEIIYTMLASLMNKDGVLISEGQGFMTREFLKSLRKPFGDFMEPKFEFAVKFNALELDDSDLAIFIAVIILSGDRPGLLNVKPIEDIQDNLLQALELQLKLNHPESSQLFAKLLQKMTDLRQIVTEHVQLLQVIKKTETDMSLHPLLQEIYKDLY
Chain of Peroxisome proliferator-activated receptor gamma/Nuclear receptor coactivator 1 (Q15788 whole entry, further chain): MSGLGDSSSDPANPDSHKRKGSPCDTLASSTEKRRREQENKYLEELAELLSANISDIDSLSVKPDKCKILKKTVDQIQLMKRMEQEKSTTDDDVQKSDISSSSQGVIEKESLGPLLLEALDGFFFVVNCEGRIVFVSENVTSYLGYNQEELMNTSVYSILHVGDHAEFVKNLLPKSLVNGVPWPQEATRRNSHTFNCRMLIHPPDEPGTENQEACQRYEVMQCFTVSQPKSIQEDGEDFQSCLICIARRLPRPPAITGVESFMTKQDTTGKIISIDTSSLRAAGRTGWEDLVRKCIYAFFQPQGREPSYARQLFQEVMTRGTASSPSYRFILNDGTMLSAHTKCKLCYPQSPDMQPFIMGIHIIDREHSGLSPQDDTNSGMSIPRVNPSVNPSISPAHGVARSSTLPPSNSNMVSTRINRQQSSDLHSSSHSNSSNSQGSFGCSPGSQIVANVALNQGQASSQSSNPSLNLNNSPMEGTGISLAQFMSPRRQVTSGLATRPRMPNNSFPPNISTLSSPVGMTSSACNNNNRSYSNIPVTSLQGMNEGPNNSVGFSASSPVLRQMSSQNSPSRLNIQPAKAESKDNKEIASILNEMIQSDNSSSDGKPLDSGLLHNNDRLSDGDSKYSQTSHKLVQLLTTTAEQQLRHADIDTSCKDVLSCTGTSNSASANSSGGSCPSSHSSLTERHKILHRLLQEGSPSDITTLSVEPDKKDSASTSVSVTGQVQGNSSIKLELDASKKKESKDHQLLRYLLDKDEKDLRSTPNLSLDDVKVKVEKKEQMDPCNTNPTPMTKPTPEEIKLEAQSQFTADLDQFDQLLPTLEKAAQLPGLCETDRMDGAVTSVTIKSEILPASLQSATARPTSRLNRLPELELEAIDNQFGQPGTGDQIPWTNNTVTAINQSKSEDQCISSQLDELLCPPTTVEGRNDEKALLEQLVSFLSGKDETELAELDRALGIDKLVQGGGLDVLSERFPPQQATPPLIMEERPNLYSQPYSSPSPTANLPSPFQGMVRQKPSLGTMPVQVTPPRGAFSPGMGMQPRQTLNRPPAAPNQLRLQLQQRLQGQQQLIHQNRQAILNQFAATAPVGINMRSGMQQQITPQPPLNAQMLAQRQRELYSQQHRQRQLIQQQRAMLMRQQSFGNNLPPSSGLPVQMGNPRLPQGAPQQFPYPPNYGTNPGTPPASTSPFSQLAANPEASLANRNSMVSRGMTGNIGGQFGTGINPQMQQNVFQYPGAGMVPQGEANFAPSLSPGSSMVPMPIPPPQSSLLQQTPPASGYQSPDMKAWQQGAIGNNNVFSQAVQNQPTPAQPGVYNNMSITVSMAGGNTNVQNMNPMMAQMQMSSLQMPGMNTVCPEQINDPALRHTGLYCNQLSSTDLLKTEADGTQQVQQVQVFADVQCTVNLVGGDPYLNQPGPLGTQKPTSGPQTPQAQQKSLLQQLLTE
Chain of Peroxisome proliferator-activated receptor gamma/Nuclear receptor coactivator 2 (P37231 whole entry): as the sequence (P37231 whole entry) above
Chain of Peroxisome proliferator-activated receptor gamma/Nuclear receptor coactivator 2 (Q15596 whole entry, further chain): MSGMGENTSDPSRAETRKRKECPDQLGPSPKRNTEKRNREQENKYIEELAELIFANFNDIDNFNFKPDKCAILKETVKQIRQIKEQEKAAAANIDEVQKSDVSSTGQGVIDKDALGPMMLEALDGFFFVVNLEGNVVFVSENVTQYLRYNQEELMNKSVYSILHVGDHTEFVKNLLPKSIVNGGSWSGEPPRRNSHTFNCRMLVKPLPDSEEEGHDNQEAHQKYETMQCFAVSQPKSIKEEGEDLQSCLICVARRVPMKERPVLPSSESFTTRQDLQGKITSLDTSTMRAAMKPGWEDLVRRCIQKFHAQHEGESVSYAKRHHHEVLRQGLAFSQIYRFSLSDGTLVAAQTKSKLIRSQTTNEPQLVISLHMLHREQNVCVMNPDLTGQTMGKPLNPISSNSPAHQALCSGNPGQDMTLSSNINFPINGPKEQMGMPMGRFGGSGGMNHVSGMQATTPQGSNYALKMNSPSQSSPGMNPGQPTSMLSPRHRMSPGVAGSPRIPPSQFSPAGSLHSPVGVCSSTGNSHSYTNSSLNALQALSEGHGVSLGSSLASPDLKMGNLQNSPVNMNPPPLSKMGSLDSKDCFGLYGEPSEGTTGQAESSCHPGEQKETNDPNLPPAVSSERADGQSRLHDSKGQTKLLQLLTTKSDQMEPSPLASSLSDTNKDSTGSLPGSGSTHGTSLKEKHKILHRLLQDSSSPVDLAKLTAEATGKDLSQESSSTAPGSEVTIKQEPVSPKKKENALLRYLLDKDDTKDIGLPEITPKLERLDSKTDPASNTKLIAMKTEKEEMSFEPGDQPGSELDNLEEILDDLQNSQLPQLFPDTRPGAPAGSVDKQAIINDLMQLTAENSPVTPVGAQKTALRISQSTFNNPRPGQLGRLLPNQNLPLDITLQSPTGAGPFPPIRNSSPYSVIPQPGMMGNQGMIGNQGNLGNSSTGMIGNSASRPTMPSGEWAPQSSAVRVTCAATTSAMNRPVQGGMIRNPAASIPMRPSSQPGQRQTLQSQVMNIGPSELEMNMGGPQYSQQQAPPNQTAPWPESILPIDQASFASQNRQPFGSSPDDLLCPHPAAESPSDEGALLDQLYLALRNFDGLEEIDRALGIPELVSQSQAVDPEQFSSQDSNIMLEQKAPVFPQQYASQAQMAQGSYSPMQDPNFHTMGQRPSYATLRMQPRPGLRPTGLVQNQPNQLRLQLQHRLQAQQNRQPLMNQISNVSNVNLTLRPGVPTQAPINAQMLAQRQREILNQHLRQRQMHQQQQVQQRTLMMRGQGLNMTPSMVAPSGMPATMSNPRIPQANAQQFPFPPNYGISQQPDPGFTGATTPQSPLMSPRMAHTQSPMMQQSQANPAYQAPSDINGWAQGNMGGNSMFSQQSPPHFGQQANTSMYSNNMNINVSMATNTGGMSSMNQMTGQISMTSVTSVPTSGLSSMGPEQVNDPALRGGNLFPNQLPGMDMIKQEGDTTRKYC
Chain of DNA damage-inducible transcript 3 protein (P35639 whole entry): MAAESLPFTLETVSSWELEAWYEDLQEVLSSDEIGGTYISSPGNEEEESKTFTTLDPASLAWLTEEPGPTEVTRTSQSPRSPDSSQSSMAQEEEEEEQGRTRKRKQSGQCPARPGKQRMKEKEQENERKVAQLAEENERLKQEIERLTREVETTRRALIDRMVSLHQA
Chain of Endoplasmic reticulum aminopeptidase 1 (Q9NZ08 whole entry): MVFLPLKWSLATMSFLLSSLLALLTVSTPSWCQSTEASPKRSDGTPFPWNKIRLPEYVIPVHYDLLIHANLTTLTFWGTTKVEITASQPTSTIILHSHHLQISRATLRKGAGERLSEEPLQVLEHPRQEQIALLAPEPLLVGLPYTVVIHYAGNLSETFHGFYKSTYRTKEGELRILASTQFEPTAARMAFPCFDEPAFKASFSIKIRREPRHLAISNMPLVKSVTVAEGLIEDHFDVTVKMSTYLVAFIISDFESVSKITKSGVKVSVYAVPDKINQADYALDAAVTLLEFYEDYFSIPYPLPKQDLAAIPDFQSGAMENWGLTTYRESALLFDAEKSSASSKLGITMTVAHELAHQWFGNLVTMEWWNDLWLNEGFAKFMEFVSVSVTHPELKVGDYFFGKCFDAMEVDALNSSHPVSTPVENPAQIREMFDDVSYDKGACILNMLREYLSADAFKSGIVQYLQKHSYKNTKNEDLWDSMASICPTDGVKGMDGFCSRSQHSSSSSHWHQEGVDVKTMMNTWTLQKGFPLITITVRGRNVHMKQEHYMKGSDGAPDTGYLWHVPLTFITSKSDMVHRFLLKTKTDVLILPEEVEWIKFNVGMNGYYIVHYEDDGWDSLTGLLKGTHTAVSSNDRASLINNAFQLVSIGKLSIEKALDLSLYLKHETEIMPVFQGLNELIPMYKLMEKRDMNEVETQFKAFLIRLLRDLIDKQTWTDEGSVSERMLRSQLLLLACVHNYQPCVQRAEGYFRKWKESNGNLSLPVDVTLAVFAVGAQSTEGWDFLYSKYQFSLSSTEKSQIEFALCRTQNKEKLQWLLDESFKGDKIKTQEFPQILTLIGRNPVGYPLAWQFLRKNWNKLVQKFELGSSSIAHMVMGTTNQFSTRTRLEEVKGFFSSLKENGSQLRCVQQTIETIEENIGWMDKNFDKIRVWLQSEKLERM

CCn1c(=O)cc(SCC(=O)NCc2ccccn2)c2ccccc21
EC50 [1]: > 79.4 µM (inactive)
EC50 [2]: > 79.4 µM (not active)
EC50 [3]: > 79.4 µM (not active)

COC(=O)CN1C(=S)N(Cc2ccccc2)C(=O)C1CC(=O)Nc1ccc(Br)cc1 (centres undefined)
Absolute IC50 (CHOP) [4]: 10 µM
IC50 (Protein skinhead-1): > 100 µM (inactive)

COc1cc(O)c2c(=O)c3c(O)c(O)ccc3oc2c1OC
AC50 [5]: 2.06 µM (active)

O=C1c2cccc3cccc(c23)C(=O)N1CCCn1ccnc1
AC50 [6]: 20.2 µM (active)

CC(=O)N1[C@@H]2Cn3c(ccc(/C=C/c4ccccc4)c3=O)[C@H]1[C@@H](C(=O)NCC1CC1)[C@@H]2CO
AC50 [7]: 8.13 µM (active)

O=C(N/N=C/c1cc([N+](=O)[O-])ccc1O)c1ccc(COc2ccc3c(c2)CCC3)o1
EC50 [8]: 11.6 µM (active)
EC50 [9]: 1.19 µM (active)
EC50 [10]: > 180 µM (inactive)
EC50 [11]: 28.3 µM (active)

COc1ccc(O)c(/C=N/NC(=O)c2ccc(CSc3nc(C)cc(C)n3)cc2)c1
EC50 [8]: > 150 µM (inactive)
EC50 (BJ [12]): 20.6 µM (active)
EC50 (cells [13]): 24 µM (active)
EC50 (BJ [14]): 17.5 µM (inconclusive)
EC50 [9]: > 38 µM (not active)
EC50 (cells [15]): > 350 µM (not active)
EC50 (BJ [16]): > 75 µM (not active)
EC50 [17]: 27.7 µM (active)
AC50 [18]: 9.31 µM (active)
AC50 (INS1): 4.6 µM (active)

COc1ccc(/C=C2\SC(=N)NC2=O)cc1
AC50 [5]: 0.038 µM (active)

O=C(Nc1ccc(Cl)cc1)Nc1ccc2c(c1)N1CCN=C1S2
AC50 [5]: 1.07 µM (active)
